US20040185016A1, “Compositions for treatment of hyperpigmentation and methods for making and using such compositions” (priority 2002, published 2004)
Like-named read-outs stand apart in the source and are kept apart here.

Columns and labels:
[1] = in composition of Example 1; 30 and 90 days
Protocol: The composition of Example 1 was subjected to a range of temperatures over a period of time from 30 to 90 days to determine the chemical stability of selected ingredients. […] “FT” refers to freeze thaw conditions (−10° to −20° C.) where the product is exposed to freezing conditions for two days and then allowed to that at controlled room temperature (15° to 30° C.) for the next five days.

[2] = 0 days
Protocol: (§1) The composition of Example 3 was subjected to a range of temperatures over a prolonged period of time to determine the chemical stability of selected ingredients.
(§2) Next, chemical stability of avobenzone was determined using a suitable HPLC assay.
(§3) Next, the chemical stability of octyl methoxycinnamate was determined using a suitable HPLC assay.
(§4) Next, the chemical stability of the oxybenzone sunscreen was determined for 30 and 60 days at 6° C., 25° C., 30° C., and 40° C. using a suitable HPLC assay.
(§5) Next, the chemical stability of the oxybenzone sunscreen at 90 days was determined using a suitable HPLC assay.

[3] = chemical stability of selected ingredients in the composition of Example 3 (HPLC assay); settings: in composition of Example 3
Protocol: as §1, §2, §3, §4, §5

COc1ccc(C(=O)CC(=O)c2ccc(C(C)(C)C)cc2)cc1 [avobenzone]
ingredient activity after exposure of the formulation to high and low temperatures [1]: remained active
ingredient content, chemical stability by HPLC [2]: 3.03 % W/W
ingredient activity after exposure of the formulation to high and low temperatures ([3]; 30 to 90 days): remained active

Oc1ccc(O)cc1 [hydroquinone]
ingredient activity after exposure of the formulation to high and low temperatures [1]: remains active
ingredient content, chemical stability by HPLC [2]: 3.95 % W/W
ingredient activity after exposure of the formulation to high and low temperatures ([3]; 30 to 90 days): remained active

CCCCC(CC)COC(=O)C=Cc1ccc(OC)cc1 (stereo not drawn) [octyl methoxycinnamate]
ingredient content, chemical stability by HPLC [2]: 7.61 % W/W

COc1ccc(C(=O)c2ccccc2)c(O)c1 [oxybenzone]
ingredient activity after exposure of the formulation to high and low temperatures ([3]; 30 to 60 days): remained active
ingredient activity after exposure of the formulation to high and low temperatures ([3]; 30 to 90 days): remained active
ingredient content, chemical stability by HPLC ([3]; 30 days, 25°): 5.98 % W/W
ingredient content, chemical stability by HPLC ([3]; 30 days, 30°): 5.95 % W/W
ingredient content, chemical stability by HPLC ([3]; 30 days, 40°): 6.04 % W/W
ingredient content, chemical stability by HPLC ([3]; 60 days, 25°): 6.04 % W/W
ingredient content, chemical stability by HPLC ([3]; 60 days, 30°): 6.02 % W/W
ingredient content, chemical stability by HPLC ([3]; 60 days, 40°): 6.07 % W/W
ingredient content, chemical stability by HPLC ([3]; 90 days, 6°): 6.05 % W/W
ingredient content, chemical stability by HPLC ([3]; 90 days, 25°): 6.09 % W/W
ingredient content, chemical stability by HPLC ([3]; 90 days, 30°): 6.07 % W/W
ingredient content, chemical stability by HPLC ([3]; 90 days, 40°): 6.06 % W/W
ingredient content, chemical stability by HPLC ([3]; 90 days, FT (freeze thaw)): 6.09 % W/W
ingredient content, chemical stability by HPLC ([3]; day 0, 25°): 6.07 % W/W
